CSCC1CN(/N=C/c2ccc([N+](=O)[O-])o2)C(=O)O1 (configuration not stated)
solubility (mole fraction)
Conditions	293.15 K	298.15 K	303.15 K	308.15 K	313.15 K	318.15 K	323.15 K	328.15 K	333.15 K
in DMF	0.012	0.015	0.0186	0.0229	0.0279	0.0338	0.0405	0.0483	0.0571
in DMSO	0.0172	0.021	0.0255	0.0307	0.0367	0.0435	0.0511	0.0596	0.069
in THF	0.000618	0.000801	0.00103	0.00131	0.00166	0.00209	0.0026	0.00322	0.00397
in acetic acid	0.000206	0.000275	0.000364	0.000479	0.000624	0.000808	0.00104	0.00133	0.00168
in acetone	0.00109	0.0014	0.00178	0.00225	0.00281	0.0035	0.00432	0.0053	–
in acetonitrile	0.00235	0.00296	0.00369	0.00457	0.00562	0.00687	0.00835	0.0101	0.0121
in dichloromethane	0.00151	0.00192	0.00242	0.00303	–	–	–	–	–
in ethanol	1.98e-05	2.7e-05	3.65e-05	4.89e-05	6.49e-05	8.54e-05	0.000111	0.000144	0.000185
in ethyl acetate	0.000224	0.000297	0.000389	0.000505	0.000651	0.000832	0.00106	0.00133	0.00167
in isopropanol	1.45e-05	2e-05	2.73e-05	3.69e-05	4.94e-05	6.56e-05	8.63e-05	0.000113	0.000146
in methanol	3.84e-05	5.31e-05	7.26e-05	9.85e-05	0.000132	0.000177	0.000234	0.000308	0.000403
in water	1.53e-05	2.06e-05	2.75e-05	3.63e-05	4.74e-05	6.16e-05	7.93e-05	0.000101	0.000129

Source: BigSolDB 2.1
